In patent US20060069132A1, “Azolecarboxamide herbicides” (priority 2004, published 2006):

How the values were obtained:
cocklebur = test: Test B pre-/postemergence herbicide test; type: in vivo, Xanthium strumarium; conditions: for Cocklebur plant response rating: postemergence, scale 0 (no effect) to 100 (complete control)
Method in brief: (§1)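 Pre: seeds sown, then sprayed. Post: 1–4-leaf plants (2–18 cm) sprayed at the same time. Paddy: flooded, treated at 2-leaf stage. Formulation: non-phytotoxic solvent with surfactant. Greenhouse 13–15 days; visual 0–100 score relative to controls.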

morningglory = test: Test B pre-/postemergence herbicide test; type: in vivo, Ipomoea coccinea; conditions: for Morningglory plant response rating: postemergence
Method in brief: as §1

pigweed = test: Test B pre-/postemergence herbicide test; type: in vivo, Amaranthus retroflexus; conditions: for Pigweed plant response rating: postemergence
Method in brief: (§2)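 Greenhouse pot assay with simultaneous preemergence (treated seed) and postemergence (2–18 cm seedlings) applications of surfactant-containing, non-phytotoxic solvent formulations. Response scored visually 13–15 days later on a 0–100 scale, 100 meaning complete control.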

[1] = test system: small flower umbrella sedge; test: Test B flooded paddy test; type: in vivo, Cyperus difformis; conditions: 1000 g ai/ha, scale 0 to 100 (0 no effect, 100 complete control)
Method in brief: (§3)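 Read-out: visual comparison with controls, scored 0 to 100, where 100 means complete control and 0 no effect. Formulated chemicals were applied postemergence to plants 2–18 cm tall (1- to 4-leaf), or to flooded-paddy plants at the 2-leaf stage, then held 13 to 15 days under glass.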

wild oat = test: Test B postemergence herbicide test; type: in vivo, Avena fatua; conditions: postemergence
Method in brief: (§4)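 Each value is a visual 0–100 response rating taken against controls 13 to 15 days after treatment in the greenhouse. Plants received formulated chemical postemergence at the 1- to 4-leaf stage or, in flooded paddy, at the 2-leaf stage.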

rice [2] = test: Test C flooded paddy test; type: in vivo, Oryza sativa
Method in brief: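 Injury scored visually against controls on a 0 (no effect) to 100 (complete control) scale, 12 to 14 days after treatment in greenhouse. Flooded paddy plants treated at 2-leaf stage; postemergence plants at 1- to 4-leaf stage, 2 to 18 cm tall.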

velvetleaf = test: Test B pre-/postemergence herbicide test; type: in vivo, Abutilon theophrasti; conditions: for Velvetleaf plant response rating: postemergence
Method in brief: as §2

ducksalad [3] = test: Test B flooded paddy test; type: in vivo, Heteranthera limosa; conditions: 1000 g ai/ha, scale 0 to 100 (0 no effect, 100 complete control)
Method in brief: as §3

ducksalad [4] = test: Test C flooded paddy test; type: in vivo, Heteranthera limosa
corn = test: Test B pre-/postemergence herbicide test; type: in vivo, Zea mays; conditions: for Corn plant response rating: postemergence
Method in brief: as §2

Surinam grass = test: Test B pre-/postemergence herbicide test; type: in vivo, Urochloa decumbens; conditions: for Surinam Grass plant response rating: postemergence
Method in brief: as §2

large crabgrass = test: Test B pre-/postemergence herbicide test; type: in vivo, Digitaria sanguinalis; conditions: for Crabgrass, Large plant response rating: postemergence
Method in brief: as §2

giant foxtail = test: Test B pre-/postemergence herbicide test; type: in vivo, Setaria faberi; conditions: for Foxtail, Giant plant response rating: postemergence
Method in brief: as §2

barnyardgrass [5] = test: Test B flooded paddy test; type: in vivo, Echinochloa crus-galli; conditions: 1000 g ai/ha, scale 0 to 100 (0 no effect, 100 complete control)
Method in brief: as §3

lambsquarters = test: Test B pre-/postemergence herbicide test; type: in vivo, Chenopodium album; conditions: for Lambsquarters plant response rating: postemergence
Method in brief: as §2

blackgrass = test: Test B postemergence herbicide test; type: in vivo, Alopecurus myosuroides; conditions: postemergence, visual rating, scale 0 (no effect) to 100 (complete control)
Method in brief: as §3

wheat = test: Test B postemergence herbicide test; type: in vivo, Triticum aestivum; design: key to Wheat plant response rating: 0 = no effect, 100 = complete control; conditions: postemergence
Method in brief: as §4

[6] = test system: smallflower umbrella sedge; test: Test C flooded paddy test; type: in vivo, Cyperus difformis
rice [7] = test: Test B flooded paddy test; type: in vivo, Oryza sativa; conditions: 1000 g ai/ha, scale 0 to 100 (0 no effect, 100 complete control)
Method in brief: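 Greenhouse test; postemergence application to plants at 1–4 leaves (2–18 cm); paddy species at 2 leaves; evaluated visually vs controls at 13–15 days; scale 0–100 (100 = complete control).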

barnyardgrass [8] = test: Test C flooded paddy test; type: in vivo, Echinochloa crus-galli
Method in brief: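 Ratings (0 = no effect, 100 = complete control) come from visual comparison with untreated plants after 12 to 14 days in the greenhouse. Treatment was postemergence at the 1- to 4-leaf stage (2–18 cm), or at the 2-leaf stage for the flooded paddy barnyardgrass.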

rice [9] = test: Test B pre-/postemergence herbicide test; type: in vivo, Oryza sativa; conditions: 0 = no effect, 100 = complete control, preemergence
Method in brief: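 Species tested were Echinochloa crus-galli, Ipomoea coccinea, Xanthium strumarium and Oryza sativa, treated both before emergence and at the 1- to 4-leaf stage; rice and barnyardgrass were also tested under flooding at 2 leaves. Greenhouse incubation lasted 13–15 days before visual 0–100 scoring.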

barnyardgrass [10] = test: Test B pre-/postemergence herbicide test; type: in vivo, Echinochloa crus-galli; conditions: for Barnyardgrass plant response rating: postemergence, scale 0 (no effect) to 100 (complete control)
Method in brief: as §1

[11] = 125 g ai/ha, 0 = no effect, 100 = complete control, preemergence
[12] = 500 g ai/ha, visual rating, 0 = no effect, 100 = complete control, preemergence
[13] = 125 g ai/ha, visual rating, scale 0 (no effect) to 100 (complete control)
[14] = 500 g ai/ha, scale 0 to 100, 0 is no effect, 100 is complete control
[15] = 125 g ai/ha, scale 0 to 100 (0 no effect, 100 complete control)
[16] = 250 g ai/ha, scale of 0 to 100, 0 is no effect, 100 is complete control
[17] = 500 g ai/ha, visual rating after 12 to 14 days, scale 0 to 100 (0 no effect, 100 complete control)

CCNC(=O)c1ccc(OC)c(NC(=O)c2cc(C(C)(C)C)nn2CC)n1 [Compound 266]
0: Cocklebur plant response rating (0 to 100 scale) (cocklebur; [11]) | Cocklebur plant response rating (cocklebur; 125 g ai/ha, visual rating) | Cocklebur plant response rating (cocklebur; 500 g ai/ha, visual rating) | Morningglory plant response rating (0 to 100 scale) (morningglory; [11]) | Rice plant response rating (rice [2]; 62 g ai/ha, scale 0 to 100) | Velvetleaf plant response rating (velvetleaf; [13]) | Velvetleaf plant response rating (velvetleaf; [14]) | Ducksalad plant response rating (ducksalad [4]; 62 g ai/ha, scale 0 to 100) | Corn plant response rating (0 to 100 scale) (corn; [11]) | Corn plant response rating (corn; [13]) | Corn plant response rating (corn; [14]) | Crabgrass, Large plant response rating (large crabgrass; [13]) | Crabgrass, Large plant response rating (large crabgrass; [14]) | Foxtail, Giant plant response rating (giant foxtail; [13]) | Sedge, Umbrella plant response rating ([6]; 62 g ai/ha, scale 0 to 100) | Barnyardgrass plant response rating (barnyardgrass [8]; 62 g ai/ha, scale 0 to 100 (0 no effect, 100 complete control)) | Barnyardgrass plant response rating (barnyardgrass [10]; 125 g ai/ha, visual rating) | Barnyardgrass plant response rating (barnyardgrass [10]; 500 g ai/ha, visual rating)
100: Pigweed plant response rating (0 to 100 scale) (pigweed; [11]) | Plant response rating, Pigweed (pigweed; [12]) | Pigweed plant response rating (pigweed; [14]) | Plant response rating, Velvetleaf (velvetleaf; [12]) | Plant response rating, Crabgrass, Large (large crabgrass; [12]) | Plant response rating, Foxtail, Giant (giant foxtail; [12]) | Lambsquarters plant response rating (0 to 100 scale) (lambsquarters; [11]) | Plant response rating, Lambsquarters (lambsquarters; [12]) | Lambsquarters plant response rating (lambsquarters; [14])
70: Plant response rating, Barnyardgrass (barnyardgrass [8]; [17]) | Rice plant response rating (0 to 100 scale) (rice [9]; 125 g ai/ha)
65: Rice plant response rating (rice [2]; [16])
30: Morningglory plant response rating (morningglory; [13]) | Wheat plant response rating (wheat; [14])
60: Surinam Grass plant response rating (0 to 100 scale) (Surinam grass; [11]) | Lambsquarters plant response rating (lambsquarters; [13]) | Barnyardgrass plant response rating (0 to 100 scale) (barnyardgrass [10]; [11])
80: Sedge, Umbrella plant response rating [1] | Plant response rating, Rice (rice [2]; [17]) | Foxtail, Giant plant response rating (0 to 100 scale) (giant foxtail; [11]) | Barnyardgrass plant response rating (barnyardgrass [5]) | Plant response rating, Sedge, Umbrella [6, 17] | Rice plant response rating (rice [7]) | Plant response rating, Rice (rice [9]; 500 g ai/ha, visual rating) | Plant response rating, Barnyardgrass (barnyardgrass [10]; [12])
20: Pigweed plant response rating (pigweed; [13]) | Oat, Wild plant response rating (wild oat; [14]) | Velvetleaf plant response rating (0 to 100 scale) (velvetleaf; [11]) | Surinam Grass plant response rating (Surinam grass; [14]) | Foxtail, Giant plant response rating (giant foxtail; [14]) | Blackgrass plant response rating (blackgrass; 125 g ai/ha) | Blackgrass plant response rating (blackgrass; 500 g ai/ha) | Wheat plant response rating (wheat; [13]) | Sedge, Umbrella plant response rating [6, 15]
55: Sedge, Umbrella plant response rating [6, 16]
50: Morningglory plant response rating (morningglory; [14]) | Crabgrass, Large plant response rating (0 to 100 scale) (large crabgrass; [11]) | Barnyardgrass plant response rating (barnyardgrass [8]; [16])
75: Ducksalad plant response rating (ducksalad [4]; [16])
15: Ducksalad plant response rating (ducksalad [4]; [15])
95: Plant response rating, Ducksalad (ducksalad [4]; [17])
10: Plant response rating, Cocklebur (cocklebur; [12]) | Plant response rating, Morningglory (morningglory; [12]) | Oat, Wild plant response rating (wild oat; [13]) | Rice plant response rating (rice [2]; [15]) | Surinam Grass plant response rating (Surinam grass; [13])
90: Ducksalad plant response rating (ducksalad [3]) | Plant response rating, Corn (corn; [12]) | Plant response rating, Surinam Grass (Surinam grass; [12])
25: Barnyardgrass plant response rating (barnyardgrass [8]; [15])
